Measurements as given in PubChem BioAssay (NCI).
Where “and” joins values, the source holds several entries; their conditions need not be identical. Equal values may be shown once.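 Each compound was tested at five concentrations against cells in 96-well plates for 48 hours. Here, GI50 denotes the concentration required for 50% inhibition of growth. TGI: concentration producing complete growth inhibition.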

Columns and labels:
Test in all cases: NCI tumour cell line growth inhibition, 48 h
EKVX NSCLC = system: EKVX NSCLC
KM20L2 colon = system: KM20L2 colon
MDA-N = system: MDA-N
LOX IMVI melanoma = system: LOX IMVI melanoma
UACC-62 melanoma = system: UACC-62 melanoma
HCT-15 colon = system: HCT-15 colon
SN12C renal = system: SN12C renal
IGROV1 ovarian = system: IGROV1 ovarian
SF-295 CNS = system: SF-295 CNS
SF-539 CNS = system: SF-539 CNS
DU-145 prostate = system: DU-145 prostate
A549 NSCLC = system: A549 NSCLC
MDA-MB-435 = system: MDA-MB-435
M14 melanoma = system: M14 melanoma
NCI-H522 lung = system: NCI-H522 lung
COLO 205 colon = system: COLO 205 colon
A498 renal = system: A498 renal
SN12K1 renal = system: SN12K1 renal
OVCAR-3 ovarian = system: OVCAR-3 ovarian
ACHN renal = system: ACHN renal
SK-MEL-5 melanoma = system: SK-MEL-5 melanoma
CCRF-CEM leukemia = system: CCRF-CEM leukemia
SNB-75 CNS = system: SNB-75 CNS
NCI/ADR-RES ovarian = system: NCI/ADR-RES ovarian
HL-60(TB) leukemia = system: HL-60(TB) leukemia
RPMI-8226 leukemia = system: RPMI-8226 leukemia
HOP-18 NSCLC = system: HOP-18 NSCLC
K-562 leukemia = system: K-562 leukemia
HCT-116 colon = system: HCT-116 colon
OVCAR-8 ovarian = system: OVCAR-8 ovarian
MOLT-4 leukemia = system: MOLT-4 leukemia
SR leukemia = system: SR leukemia
SW-620 colon = system: SW-620 colon
MALME-3M melanoma = system: MALME-3M melanoma
HCC-2998 colon = system: HCC-2998 colon
RXF 393 renal = system: RXF 393 renal
M19-MEL melanoma = system: M19-MEL melanoma
SK-MEL-28 melanoma = system: SK-MEL-28 melanoma
UACC-257 melanoma = system: UACC-257 melanoma
DMS 114 small cell lung = system: DMS 114 small cell lung
NCI-H23 lung = system: NCI-H23 lung
786-0 renal = system: 786-0 renal
PC-3 prostate = system: PC-3 prostate
OVCAR-4 ovarian = system: OVCAR-4 ovarian
DMS 273 small cell lung = system: DMS 273 small cell lung
HOP-92 NSCLC = system: HOP-92 NSCLC
BT-549 breast = system: BT-549 breast
HOP-62 NSCLC = system: HOP-62 NSCLC
SNB-78 CNS = system: SNB-78 CNS
HT29 colon = system: HT29 colon
NCI-H460 lung = system: NCI-H460 lung
KM12 colon = system: KM12 colon
TK-10 renal = system: TK-10 renal
SK-MEL-2 melanoma = system: SK-MEL-2 melanoma
CAKI-1 renal = system: CAKI-1 renal
SK-OV-3 ovarian = system: SK-OV-3 ovarian
MCF7 breast = system: MCF7 breast
MDA-MB-231 breast = system: MDA-MB-231 breast
SNB-19 CNS = system: SNB-19 CNS
U251 CNS = system: U251 CNS
UO-31 renal = system: UO-31 renal
SF-268 CNS = system: SF-268 CNS
T-47D breast = system: T-47D breast
DLD-1 colon = system: DLD-1 colon
NCI-H226 lung = system: NCI-H226 lung
HS 578T breast = system: HS 578T breast
OVCAR-5 ovarian = system: OVCAR-5 ovarian
XF 498 CNS = system: XF 498 CNS
P388 leukemia = system: P388 leukemia
P388/ADR leukemia = system: P388/ADR leukemia

SMILES: CN(C)CCNC(=O)c1cccc2ccc(-c3ccc(O)cc3)nc12
- TGI (EKVX NSCLC): 26.3 µM
- TGI (KM20L2 colon): 21.7 µM
- TGI (MDA-N): 8.3 µM
- TGI (LOX IMVI melanoma): 3.43 µM
- GI50 (UACC-62 melanoma): 1.6 µM
- TGI (UACC-62 melanoma): 3.16 µM and 3.83 µM
- TGI (HCT-15 colon): 14.4 µM
- TGI (SN12C renal): 13.2 µM
- GI50 (IGROV1 ovarian): 2.06 µM
- TGI (IGROV1 ovarian): 15.7 µM and 11.8 µM
- GI50 (SF-295 CNS): 2.82 µM
- TGI (SF-295 CNS): 10.8 µM
- TGI (SF-539 CNS): 15.1 µM and 13.9 µM
- TGI (DU-145 prostate): 10.6 µM
- TGI (A549 NSCLC): 7.17 µM
- TGI (MDA-MB-435): 15.5 µM
- TGI (M14 melanoma): 2.75 µM
- GI50 (NCI-H522 lung): 2.26 µM
- TGI (NCI-H522 lung): 4.62 µM and 9.18 µM
- GI50 (COLO 205 colon): 2.31 µM
- TGI (COLO 205 colon): 14.6 µM and 14.4 µM
- TGI (A498 renal): 12.1 µM
- GI50 (SN12K1 renal): 0.383 µM
- TGI (SN12K1 renal): 3.21 µM and 2.35 µM
- TGI (OVCAR-3 ovarian): 15.2 µM and 15.9 µM
- TGI (ACHN renal): 4.98 µM
- TGI (SK-MEL-5 melanoma): 2.96 µM
- TGI (CCRF-CEM leukemia): 7.25 µM
- TGI (SNB-75 CNS): 11.7 µM
- GI50 (NCI/ADR-RES ovarian): 6.8 µM
- TGI (NCI/ADR-RES ovarian): 23.7 µM and 26.3 µM
- TGI (HL-60(TB) leukemia): 3.36 µM
- TGI (RPMI-8226 leukemia): 8.56 µM
- GI50 (HOP-18 NSCLC): 2.44 µM
- TGI (HOP-18 NSCLC): 7.14 µM and 8.35 µM
- TGI (K-562 leukemia): 3.96 µM
- GI50 (HCT-116 colon): 0.879 µM
- TGI (HCT-116 colon): 2.78 µM and 10.7 µM
- TGI (OVCAR-8 ovarian): 4.13 µM
- TGI (MOLT-4 leukemia): 0.692 µM
- TGI (SR leukemia): 15.7 µM
- TGI (SW-620 colon): 11.1 µM
- GI50 (MALME-3M melanoma): 0.863 µM
- TGI (MALME-3M melanoma): 6.08 µM and 2.9 µM
- GI50 (HCC-2998 colon): 1.87 µM
- TGI (HCC-2998 colon): 17.5 µM and 14.1 µM
- GI50 (RXF 393 renal): 5.65 µM
- TGI (RXF 393 renal): 17.4 µM and 19.8 µM
- GI50 (M19-MEL melanoma): 2.12 µM
- TGI (M19-MEL melanoma): 7.04 µM and 6.83 µM
- GI50 (SK-MEL-28 melanoma): 4.14 µM
- TGI (SK-MEL-28 melanoma): 11.8 µM and 16.2 µM
- GI50 (UACC-257 melanoma): 1.06 µM
- TGI (UACC-257 melanoma): 8.29 µM and 10.1 µM
- TGI (DMS 114 small cell lung): 10.8 µM and 7.31 µM
- TGI (NCI-H23 lung): 10.1 µM and 12.4 µM
- TGI (786-0 renal): 14.4 µM
- TGI (PC-3 prostate): 8.86 µM
- TGI (OVCAR-4 ovarian): 10.4 µM and 12.2 µM
- TGI (DMS 273 small cell lung): 6.07 µM
- TGI (HOP-92 NSCLC): 11.3 µM and 11.6 µM
- TGI (BT-549 breast): 19.5 µM
- GI50 (HOP-62 NSCLC): 1.11 µM
- TGI (HOP-62 NSCLC): 7.2 µM and 4.47 µM
- TGI (SNB-78 CNS): 20.3 µM
- TGI (HT29 colon): 14.5 µM and 17.2 µM
- GI50 (NCI-H460 lung): 0.637 µM
- TGI (NCI-H460 lung): 2.85 µM and 2.99 µM
- GI50 (KM12 colon): 3.03 µM
- TGI (KM12 colon): 16.8 µM and 14.9 µM
- TGI (TK-10 renal): 9.57 µM
- TGI (SK-MEL-2 melanoma): 15.9 µM and 9.73 µM
- TGI (CAKI-1 renal): 6.53 µM and 11.3 µM
- TGI (SK-OV-3 ovarian): 15.7 µM and 9.75 µM
- TGI (MCF7 breast): 5.2 µM
- TGI (MDA-MB-231 breast): 11.6 µM
- GI50 (SNB-19 CNS): 2.41 µM
- TGI (SNB-19 CNS): 15.4 µM and 12 µM
- TGI (U251 CNS): 10.4 µM
- GI50 (UO-31 renal): 1.58 µM
- TGI (UO-31 renal): 7.35 µM and 5.12 µM
- TGI (SF-268 CNS): 17.3 µM and 19.3 µM
- TGI (T-47D breast): 6.98 µM
- GI50 (DLD-1 colon): 2.07 µM
- TGI (DLD-1 colon): 28 µM and 13.4 µM
- GI50 (NCI-H226 lung): 0.94 µM
- TGI (NCI-H226 lung): 6.33 µM and 3.6 µM
- TGI (HS 578T breast): 13.4 µM
- TGI (OVCAR-5 ovarian): 9.11 µM

SMILES: O=c1cc[nH]c(=O)[nH]1
- TGI (EKVX NSCLC): 488 µM
- TGI (KM20L2 colon): > 1000 µM
- TGI (XF 498 CNS): 7.72 µM
- TGI (LOX IMVI melanoma): 866 µM
- TGI (UACC-62 melanoma): > 1000 µM
- TGI (HCT-15 colon): > 1000 µM
- TGI (SN12C renal): > 917 µM
- TGI (IGROV1 ovarian): > 1000 µM
- TGI (SF-295 CNS): > 1000 µM
- TGI (SF-539 CNS): 926 µM
- TGI (A549 NSCLC): > 1000 µM
- TGI (NCI-H522 lung): 923 µM
- TGI (COLO 205 colon): 384 µM
- TGI (SN12K1 renal): 994 µM
- TGI (OVCAR-3 ovarian): > 1000 µM
- TGI (SK-MEL-5 melanoma): 342 µM
- TGI (CCRF-CEM leukemia): > 950 µM
- TGI (SNB-75 CNS): > 953 µM
- TGI (NCI/ADR-RES ovarian): > 562 µM
- TGI (HL-60(TB) leukemia): > 1000 µM
- TGI (RPMI-8226 leukemia): > 1000 µM
- TGI (HOP-18 NSCLC): > 1000 µM
- TGI (K-562 leukemia): > 1000 µM
- TGI (HCT-116 colon): > 821 µM
- TGI (OVCAR-8 ovarian): > 1000 µM
- TGI (MOLT-4 leukemia): > 919 µM
- TGI (SW-620 colon): > 1000 µM
- TGI (P388 leukemia): 447 µM
- GI50 (MALME-3M melanoma): > 851 µM
- TGI (MALME-3M melanoma): > 1000 µM
- TGI (HCC-2998 colon): 528 µM
- TGI (RXF 393 renal): > 889 µM
- TGI (M19-MEL melanoma): > 944 µM
- TGI (SK-MEL-28 melanoma): > 900 µM
- TGI (UACC-257 melanoma): > 1000 µM
- TGI (DMS 114 small cell lung): > 1000 µM
- TGI (NCI-H23 lung): > 315 µM
- TGI (OVCAR-4 ovarian): > 1000 µM
- TGI (DMS 273 small cell lung): > 729 µM
- TGI (HOP-92 NSCLC): > 1000 µM
- TGI (HOP-62 NSCLC): > 872 µM
- TGI (SNB-78 CNS): > 1000 µM
- TGI (HT29 colon): > 1000 µM
- TGI (P388/ADR leukemia): 807 µM
- TGI (NCI-H460 lung): 883 µM
- TGI (KM12 colon): 846 µM
- TGI (SK-MEL-2 melanoma): > 1000 µM
- TGI (CAKI-1 renal): > 920 µM
- TGI (SK-OV-3 ovarian): > 1000 µM
- TGI (MCF7 breast): > 1000 µM
- TGI (SNB-19 CNS): 828 µM
- TGI (U251 CNS): > 1000 µM
- TGI (UO-31 renal): > 1000 µM
- TGI (SF-268 CNS): > 1000 µM
- TGI (DLD-1 colon): > 1000 µM
- TGI (NCI-H226 lung): 990 µM
- TGI (OVCAR-5 ovarian): > 956 µM
